Measured values taken from ChEMBL document CHEMBL1201862, “PubChem BioAssay data set” (2004).
Active and inactive are the calls of the source.

Columns and labels:
[1] = inhibition of ARNT PAS-B/TACC3 complex formation – biochemical, AlphaScreen, cherry-picked samples, confirmation (AID 651703); type: functional, Homo sapiens;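 further: His-tagged ARNT PAS-B domain paired with GST-TACC3 E629A dimer coactivator fragment; potency of inhibitors that break up the complex and lower AlphaScreen signal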
[2] = target: T1, Caspase-6 (Homo sapiens, UniProt P55212); experiment: inhibition of CASP6 peptide cleavage – biochemical, VEID-R110 fluorescence, cherry-pick, dose response (AID 720632)
T1 sequence (P55212 whole entry): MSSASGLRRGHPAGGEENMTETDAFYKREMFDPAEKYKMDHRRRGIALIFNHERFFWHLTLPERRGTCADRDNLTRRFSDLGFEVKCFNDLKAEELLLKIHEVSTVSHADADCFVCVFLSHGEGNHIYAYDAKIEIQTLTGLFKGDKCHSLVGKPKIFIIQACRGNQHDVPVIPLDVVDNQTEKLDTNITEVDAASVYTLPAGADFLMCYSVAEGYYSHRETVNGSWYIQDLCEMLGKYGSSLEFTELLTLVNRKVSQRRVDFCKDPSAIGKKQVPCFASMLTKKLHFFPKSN

[3] = target: T2, Interleukin-8 (Homo sapiens, UniProt P10145); experiment: Dose Response confirmation of uHTS small molecule hits for cystic fibrosis induced NFkb Inhibitors in a PAF-induced IL8 counterscreen.; type: functional; conditions: read-out: IC50_Mean
T2 sequence (P10145 whole entry): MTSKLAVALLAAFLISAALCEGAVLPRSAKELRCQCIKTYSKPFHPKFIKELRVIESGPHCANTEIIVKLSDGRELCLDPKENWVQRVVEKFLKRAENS

[4] = target: T3, Small ubiquitin-related modifier 1 (Homo sapiens, UniProt P63165); experiment: SUMO1 protein-protein binding blockers, potency – biochemical, FRET, dose response (AID 624383); type: functional; conditions: read-out: IC50_Mean
T3 sequence (P63165 whole entry, the tested form may be a part): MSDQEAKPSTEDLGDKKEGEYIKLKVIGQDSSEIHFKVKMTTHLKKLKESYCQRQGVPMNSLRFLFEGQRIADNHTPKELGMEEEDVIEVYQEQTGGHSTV

[5] = target: T4, Tyrosine-protein phosphatase non-receptor type 22 (Homo sapiens, UniProt Q9Y2R2); experiment: PTPN22 enzyme inhibitors – biochemical, fluorescence, LYP catalytic domain, selectivity assay for LMPTP inhibitor project, dose response (AID 652006); type: functional; conditions: read-out: IC50_Mean
T4 sequence (Q9Y2R2 whole entry): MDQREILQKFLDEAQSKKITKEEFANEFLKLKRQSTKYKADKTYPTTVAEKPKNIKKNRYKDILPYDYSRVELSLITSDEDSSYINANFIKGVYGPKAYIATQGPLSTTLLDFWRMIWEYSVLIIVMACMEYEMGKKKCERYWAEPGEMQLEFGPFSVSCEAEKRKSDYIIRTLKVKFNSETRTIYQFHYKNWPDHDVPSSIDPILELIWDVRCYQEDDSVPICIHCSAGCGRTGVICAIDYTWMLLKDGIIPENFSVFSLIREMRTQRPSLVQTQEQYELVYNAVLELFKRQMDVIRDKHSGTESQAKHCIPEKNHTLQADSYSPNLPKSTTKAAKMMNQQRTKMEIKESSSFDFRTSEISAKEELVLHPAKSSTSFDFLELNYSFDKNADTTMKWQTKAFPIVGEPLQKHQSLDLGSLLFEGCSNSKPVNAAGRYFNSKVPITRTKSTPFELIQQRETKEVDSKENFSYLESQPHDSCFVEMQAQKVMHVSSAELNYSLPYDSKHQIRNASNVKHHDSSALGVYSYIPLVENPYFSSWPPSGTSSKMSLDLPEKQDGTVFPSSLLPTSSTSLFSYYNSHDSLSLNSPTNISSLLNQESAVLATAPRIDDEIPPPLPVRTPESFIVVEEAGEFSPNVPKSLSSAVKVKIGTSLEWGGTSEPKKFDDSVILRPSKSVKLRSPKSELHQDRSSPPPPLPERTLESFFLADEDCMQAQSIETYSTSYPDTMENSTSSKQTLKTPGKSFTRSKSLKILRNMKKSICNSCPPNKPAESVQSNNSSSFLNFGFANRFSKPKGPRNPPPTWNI

[6] = target: T3, Small ubiquitin-related modifier 1; experiment: SUMO1 protein interaction blockers, potency – biochemical, fluorescence polarization, uHTS hits, dose response (AID 624382); type: functional; conditions: read-out: IC50_Mean
[7] = target: T5, Low molecular weight phosphotyrosine protein phosphatase (Homo sapiens, UniProt P24666); type: functional; conditions: read-out: IC50_Mean
T5 sequence (P24666 whole entry): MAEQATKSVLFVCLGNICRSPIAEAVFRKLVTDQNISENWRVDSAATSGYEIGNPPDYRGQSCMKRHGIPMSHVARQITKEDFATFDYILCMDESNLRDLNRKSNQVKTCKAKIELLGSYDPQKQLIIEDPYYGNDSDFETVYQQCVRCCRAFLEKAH

[8] = target: 26S proteasome non-ATPase regulatory subunit 14 (Homo sapiens, UniProt O00487); experiment: inhibition of proteasome subunit RPN11 – biochemical, fluorescence polarization, uHTS hits, confirmation (AID 602368); type: functional
26S proteasome non-ATPase regulatory subunit 14, sequence (O00487 whole entry): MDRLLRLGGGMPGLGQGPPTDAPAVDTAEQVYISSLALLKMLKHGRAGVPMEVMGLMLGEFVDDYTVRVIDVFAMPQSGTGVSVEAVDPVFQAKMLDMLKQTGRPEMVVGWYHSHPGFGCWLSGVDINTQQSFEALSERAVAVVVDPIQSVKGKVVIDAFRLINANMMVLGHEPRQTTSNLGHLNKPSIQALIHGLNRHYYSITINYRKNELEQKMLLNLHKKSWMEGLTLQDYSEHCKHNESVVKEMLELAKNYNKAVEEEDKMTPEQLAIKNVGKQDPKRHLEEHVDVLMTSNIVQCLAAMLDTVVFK

[9] = target: T5, Low molecular weight phosphotyrosine protein phosphatase; type: functional; conditions: read-out: IC50_Mean; remark: listed apart in the source
[10] = target: 72 kDa type IV collagenase (Homo sapiens, UniProt P08253); experiment: Dose Response validation of uHTS RPN11 inhibitor hits using a MMP-2 Fluorescence assay.; type: functional
72 kDa type IV collagenase, sequence (P08253 whole entry): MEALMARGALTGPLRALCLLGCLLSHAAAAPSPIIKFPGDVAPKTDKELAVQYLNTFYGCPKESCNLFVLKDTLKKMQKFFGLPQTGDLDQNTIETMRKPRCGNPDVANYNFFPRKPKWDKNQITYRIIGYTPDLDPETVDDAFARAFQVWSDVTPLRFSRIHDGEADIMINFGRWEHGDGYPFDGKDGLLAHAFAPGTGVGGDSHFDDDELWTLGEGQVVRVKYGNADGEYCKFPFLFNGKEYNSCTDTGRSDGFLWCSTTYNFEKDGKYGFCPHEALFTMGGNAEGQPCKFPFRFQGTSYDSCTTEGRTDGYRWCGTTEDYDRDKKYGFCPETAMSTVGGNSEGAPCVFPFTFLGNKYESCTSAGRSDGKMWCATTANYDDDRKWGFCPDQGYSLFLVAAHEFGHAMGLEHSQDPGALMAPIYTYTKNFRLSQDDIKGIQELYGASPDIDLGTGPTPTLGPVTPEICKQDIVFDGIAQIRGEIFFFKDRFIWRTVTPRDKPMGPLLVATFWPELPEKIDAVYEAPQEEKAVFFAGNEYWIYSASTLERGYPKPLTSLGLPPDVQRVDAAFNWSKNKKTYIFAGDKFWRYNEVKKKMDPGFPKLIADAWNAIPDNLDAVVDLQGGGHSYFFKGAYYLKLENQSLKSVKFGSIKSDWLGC

[11] = target: Prothrombin (Bos taurus, UniProt P00735); experiment: thrombin protease inhibitors – biochemical, fluorescence polarization, uHTS hits, dose response (AID 602369); type: functional
[12] = target: ADP-ribosylation factor GTPase-activating protein 1 (Rattus norvegicus, UniProt Q62848); experiment: Fluorescence polarization-based biochemical high throughput dose response screening assay to identify inhibitors of ADP-ribosylation factor GTPase activating protein 1 (ARFGAP1).; type: functional
ADP-ribosylation factor GTPase-activating protein 1, sequence (Q62848 whole entry): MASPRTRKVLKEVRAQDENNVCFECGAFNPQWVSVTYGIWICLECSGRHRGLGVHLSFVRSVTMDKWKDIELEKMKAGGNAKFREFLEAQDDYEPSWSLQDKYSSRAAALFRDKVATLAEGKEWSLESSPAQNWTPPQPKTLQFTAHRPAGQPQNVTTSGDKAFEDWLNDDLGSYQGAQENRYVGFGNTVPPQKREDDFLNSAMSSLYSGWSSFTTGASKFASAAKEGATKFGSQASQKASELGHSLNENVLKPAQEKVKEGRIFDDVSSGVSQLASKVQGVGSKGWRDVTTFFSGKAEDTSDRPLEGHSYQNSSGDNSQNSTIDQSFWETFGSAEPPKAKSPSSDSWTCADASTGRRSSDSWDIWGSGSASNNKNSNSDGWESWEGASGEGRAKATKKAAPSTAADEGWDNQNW

[13] = Trypanosoma cruzi growth suppression in host cells – NIH3T3 host cells, beta-gal luminescence, confirmation (AID 2044); type: functional, cell-based;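 further: intracellular parasites grown in NIH/3T3 mouse fibroblasts as host cells; luminescent beta-galactosidase reporter signal from transgenic T. cruzi replicating inside host cells; inhibitors lower the luminescence signal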
[14] = NIH3T3 cell viability loss – ATP luminescence, mouse fibroblasts, counter-screen, dose response (AID 2010); type: functional, cell-based;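 further: cells exposed to compound for about 90 hours before reading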
[15] = target: T6, Mitochondrial peptide methionine sulfoxide reductase (Bos taurus, UniProt P54149); type: functional;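 further: absorbance read-out, biochemical high-throughput dose-response screen for MsrA inhibitors, confirmatory; recombinant bovine MsrA coupled to E. coli TrxB with NADPH and selenocystamine; potency is for inhibitors of MsrA activity on DMSO substrate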
T6 sequence (P54149 whole entry): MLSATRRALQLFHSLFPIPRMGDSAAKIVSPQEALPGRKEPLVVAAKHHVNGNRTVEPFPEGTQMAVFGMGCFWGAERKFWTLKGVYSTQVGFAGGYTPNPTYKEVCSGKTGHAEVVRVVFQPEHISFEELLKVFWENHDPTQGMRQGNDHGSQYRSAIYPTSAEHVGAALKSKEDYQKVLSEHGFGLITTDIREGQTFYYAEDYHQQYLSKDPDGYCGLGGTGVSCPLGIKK

For `CC1CCN(C(=O)COC(=O)c2ccc([N+](=O)[O-])o2)CC1`, the AC50 [1] was 122 µM (active) and the AC50 [2] was 18.3 µM (active).
For `COc1cncc(-c2cnc3sc(NCCc4ccccn4)nn23)c1`, the IC50 [3] was 9.33 µM (active).
With `C/C(=N\NC(=O)c1ccc(OC2OCCOC2Oc2ccc(C(=O)N/N=C(\C)c3ccncc3)cc2)cc1)c1ccncc1` (stereo not given) the IC50 [4] was 8.52 µM (active), the IC50 [5] was 13.6 µM (active) and the IC50 [6] was > 66.6 µM (inactive). The IC50 [7] was > 80 µM (inactive), the IC50 [8] was 9.62 µM (active) and the IC50 [9] was 13.2 µM (active). For the same compound, the IC50 [10] was > 100 µM (inactive) and the IC50 [11] was 41 µM (active).
For `N#CCCn1cc(/C=N/NC(N)=S)c(-c2ccc(-c3ccccc3)cc2)n1`, the IC50 [12] was 128 µM (inactive), the EC50 [13] was 0.924 µM (active) and the EC50 [14] was 9.69 µM (active).
In the case of `C/C(=N/O)c1cc(C(C)(C)C)c(O)c(C(C)(C)C)c1`, the IC50 [15] is reported as 155 µM (inactive).
